These are literature values, as cited in US20200078333A1, “Healthier Aging in Domesticated Animals” (priority 2016, published 2020).

The target of series [1] is T1, CB2 (Homo sapiens, UniProt P34972).
In series [2] the target is T2, CB1 (Homo sapiens, UniProt P21554). The settings on record: read-out: binding affinity to CB1.
Series [3] deals with T2, CB1. The settings on record: Ca2+ flux induced by AEA. For orientation: A change in cytosolic calcium serves as a functional read-out for many receptors and channels.
The conditions of series [4]: healthy as well as unhealthy persons.
Series [5] has as its target T1, CB2. The source holds these as a separate data set.
For series [6], the target named is human CB1 cannabinoid receptors (Homo sapiens, UniProt P21554). The settings on record: selective binding; function as antagonists/inverse agonists.
Sequence of human CB1 cannabinoid receptors (P21554 whole entry): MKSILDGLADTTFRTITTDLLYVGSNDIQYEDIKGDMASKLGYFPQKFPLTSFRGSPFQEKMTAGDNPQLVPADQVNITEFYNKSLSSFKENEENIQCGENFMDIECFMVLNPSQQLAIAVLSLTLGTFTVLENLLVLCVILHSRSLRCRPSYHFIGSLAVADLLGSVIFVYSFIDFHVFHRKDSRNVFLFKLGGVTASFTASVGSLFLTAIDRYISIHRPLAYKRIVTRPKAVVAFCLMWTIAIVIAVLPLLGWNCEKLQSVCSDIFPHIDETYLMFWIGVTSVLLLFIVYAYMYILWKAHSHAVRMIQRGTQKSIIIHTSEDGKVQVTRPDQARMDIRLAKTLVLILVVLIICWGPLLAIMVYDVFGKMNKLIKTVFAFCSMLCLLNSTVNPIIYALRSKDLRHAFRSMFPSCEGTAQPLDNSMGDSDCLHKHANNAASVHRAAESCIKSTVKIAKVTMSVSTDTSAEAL
The subject of series [7] is nitric oxide (NO) production. The settings on record: read-out: IC50 for inhibition of NO production.

T1 sequence (P34972 whole entry, species assumed): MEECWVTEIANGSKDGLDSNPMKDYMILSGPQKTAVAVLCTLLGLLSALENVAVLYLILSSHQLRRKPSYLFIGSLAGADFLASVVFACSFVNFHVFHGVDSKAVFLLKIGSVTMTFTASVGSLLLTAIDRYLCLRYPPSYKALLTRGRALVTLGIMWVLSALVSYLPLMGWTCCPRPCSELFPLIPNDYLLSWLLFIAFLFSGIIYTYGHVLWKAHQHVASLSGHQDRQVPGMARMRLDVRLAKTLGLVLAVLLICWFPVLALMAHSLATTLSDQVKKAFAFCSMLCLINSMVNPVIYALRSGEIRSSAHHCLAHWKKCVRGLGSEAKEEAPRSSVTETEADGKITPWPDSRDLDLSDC
T2 sequence (P21554 whole entry, species assumed): as the sequence (P21554 whole entry) above

On to `CCCCCC=CCCC=CC=CC(=O)N1CCCCC1` [1-[(2E,4E,8Z)-tetradecatrienoyl] piperidine], for which the “CB1/CB2 affinity (CB2 selectivity)” value at CB2 [1] (ratio CB1/CB2) is reported as roughly 5. Further, the Ki was 160 nM on CB2 [1] (read-out: binding affinity to CB2) and 800 nM at CB1 [2].
In the case of `CC1(C)[C@@H](O)CC[C@]2(C)[C@H]3C(=O)C=C4[C@@H]5C[C@@](C)(C(=O)O)CC[C@]5(C)CC[C@@]4(C)[C@]3(C)CC[C@@H]12` [18β-glycyrrhetinic acid], at CB1 [3], the “inhibition in responses to CB1 agonist” value was “more than 90%”.
`COC1=C(OC)C(=O)C(C/C=C(\C)CC/C=C(\C)CC/C=C(\C)CC/C=C(\C)CC/C=C(\C)CC/C=C(\C)CC/C=C(\C)CC/C=C(\C)CC/C=C(\C)CCC=C(C)C)=C(C)C1=O` [CoQ10, ubiquinone]: the tolerated daily dosage entry in series [4] was “up to 3600 mg”.
On to `COc1cc(/C=C/C(=O)CC(=O)/C=C/c2ccc(O)c(OC)c2)ccc1O` [curcumin], for which the “affinity for CB2” value at CB2 [5] was “micromolar affinity”. For the same compound, the “affinity for human CB1 cannabinoid receptors” value in series [6] is “nanomolar affinities”.
Usually IC50 stands for the concentration that inhibits the measured activity by half. As for `C=CCc1ccc(O)c(-c2cc(CC=C)ccc2O)c1` [magnolol], the concentration for half-maximal inhibition (IC50) in series [7] is roughly 6200 nM.
With `Oc1ccc(/C=C/c2cc(O)cc(O)c2)cc1` [trans-resveratrol], the “affinity for human CB1 cannabinoid receptors” value in series [6] is given as “nanomolar affinities”.
